Measured values from patent US8309552B2, “Immunomodulating heterocyclic compounds” (Medigene AG, priority 2003, dated 2012).

molecular target: T1, CD80-CD28 interaction (Homo sapiens, UniProt P33681); test: Homogenous Time Resolved Fluorescence (HTRF) assay, cell free; type: binding; details: cell free HTRF assay; concentration series 100 μM-1.7 nM; 4 hours at room temperature; read-out: Activity (EC50 in the HTRF assay)
T1 sequence (P33681 35-242 limits assumed): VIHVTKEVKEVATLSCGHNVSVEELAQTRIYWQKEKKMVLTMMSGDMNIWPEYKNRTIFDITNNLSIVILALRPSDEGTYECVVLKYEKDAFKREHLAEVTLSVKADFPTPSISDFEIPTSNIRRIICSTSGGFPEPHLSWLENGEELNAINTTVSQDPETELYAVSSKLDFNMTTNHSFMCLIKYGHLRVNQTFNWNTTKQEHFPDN
How it was run: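 Europium and APC labels were linked through antibodies to CD28 and CD80 fusion proteins. Compounds were tested at 100 μM-1.7 nM for 4 h at room temperature in 50 mM Tris-HCl, 150 mM NaCl pH7.8, 0.1% BSA. Emission read at 665 and 615 nm (excitation 340 nm); non-specific signal measured with C215 Fab in place of CD80; EC50 reported in bands.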

EC50	SMILES
< 1 µM	CNCCCNC(=O)c1ccc(-n2[nH]c3c(nnc4c(F)cccc43)c2=O)cc1 [Example 355]
< 1 µM	CSCCCNC(=O)c1ccc(-n2[nH]c3c(nnc4ccccc43)c2=O)cc1 [Example 274]
< 1 µM	O=C(NCCCN1CCCC1)Nc1ccc(-n2[nH]c3c(nnc4ccccc43)c2=O)cc1 [Example 229]
< 1 µM	O=C(NCCCCNC(=O)c1ccc(-n2[nH]c3c(nnc4ccccc43)c2=O)cc1)OCc1ccccc1 [Example 266]
< 1 µM	O=C(NCCCNC1CCCCC1)c1ccc(-n2[nH]c3c(nnc4cccc(F)c43)c2=O)cc1 [Example 389]
< 1 µM	CN(C)c1ccc(CNC(=O)c2ccc(-n3[nH]c4c(nnc5ccccc54)c3=O)cc2)cc1 [Example 237]
< 1 µM	CCN(C)CCCCNC(=O)c1ccc(-n2[nH]c3c(nnc4c(F)cccc43)c2=O)cc1 [Example 432]
1 to 10 µM	CC(C)C(C)NC(=O)Nc1ccc(-n2[nH]c3c(nnc4ccccc43)c2=O)cc1 (stereo not drawn) [Example 263]
1 to 10 µM	O=C(NCCCN1CCCC1=O)Nc1ccc(-n2[nH]c3c(nnc4ccccc43)c2=O)cc1 [Example 297]
< 1 µM	CCCCNCCNC(=O)c1ccc(-n2[nH]c3c(nnc4ccccc43)c2=O)cc1 [Example 279]
< 1 µM	O=C(NCCCCN1CCCC1)c1ccc(-n2[nH]c3c(nnc4cccc(F)c43)c2=O)cc1 [Example 388]
> 10 µM	CN(CCNC(=O)Nc1ccc(-n2[nH]c3c(nnc4ccccc43)c2=O)cc1)C(=O)OC(C)(C)C [Example 265]
< 1 µM	CN(C)CCCNC(=O)c1ccc(-n2[nH]c3c(nnc4c(F)cc(F)cc43)c2=O)cc1 [Example 414]
< 1 µM	O=C(NC1CCN(Cc2ccccc2)CC1)c1ccc(-n2[nH]c3c(nnc4c(F)cccc43)c2=O)cc1 [Example 323]
< 1 µM	CCN1CCCC1CNC(=O)Nc1ccc(-n2[nH]c3c(nnc4ccccc43)c2=O)cc1 (stereo not drawn) [Example 310]
< 1 µM	CN1CCC(NC(=O)c2ccc(-n3[nH]c4c(nnc5cccc(F)c54)c3=O)cc2)CC1 [Example 391]
< 1 µM	O=C(NC1CCN(Cc2ccccc2)CC1)c1ccc(-n2[nH]c3c(nnc4ccc(F)cc43)c2=O)cc1 [Example 328]
1 to 10 µM	O=C(NC1CC1c1ccccc1)c1ccc(-n2[nH]c3c(nnc4ccccc43)c2=O)cc1 (stereo not drawn) [Example 315]
1 to 10 µM	O=C(NCCc1cccc(F)c1)c1ccc(-n2[nH]c3c(nnc4c(F)cccc43)c2=O)cc1 [Example 373]
< 1 µM	O=C(NCc1ccco1)c1ccc(-n2[nH]c3c(nnc4ccccc43)c2=O)cc1 [Example 242]
< 1 µM	CC1(C)CC(NC(=O)c2ccc(-n3[nH]c4c(nnc5c(F)cccc54)c3=O)cc2)CC(C)(C)N1 [Example 374]
> 10 µM	O=C(NCc1cccc(F)c1)Nc1ccc(-n2[nH]c3c(nnc4ccccc43)c2=O)cc1 [Example 284]
< 1 µM	NCCCCNC(=O)c1ccc(-n2[nH]c3c(nnc4c(F)cccc43)c2=O)cc1 [Example 351]
< 1 µM	CC(C)(C)c1ccc(CN2CCC(NC(=O)c3ccc(-n4[nH]c5c(nnc6c(F)cccc65)c4=O)cc3)CC2)cc1 [Example 378]
> 10 µM	O=C(NCCNc1ccc([N+](=O)[O-])cn1)Nc1ccc(-n2[nH]c3c(nnc4ccccc43)c2=O)cc1 [Example 302]
1 to 10 µM	CC(C)(C)OC(=O)CCNC(=O)Nc1ccc(-n2[nH]c3c(nnc4ccccc43)c2=O)cc1 [Example 223]
< 1 µM	CCCCOCCCNC(=O)c1ccc(-n2[nH]c3c(nnc4c(F)cccc43)c2=O)cc1 [Example 354]
< 1 µM	Cc1ccc2nnc3c(=O)n(-c4ccc(C(=O)NC5CC(C)(C)N(C)C(C)(C)C5)cc4)[nH]c3c2c1 [Example 408]
1 to 10 µM	CC1CCCCC1NC(=O)c1ccc(-n2[nH]c3c(nnc4ccccc43)c2=O)cc1 (stereo not drawn) [Example 316]
< 1 µM	O=C(NCCCCN1CCCCC1)c1ccc(-n2[nH]c3c(nnc4ccccc43)c2=O)cc1 [Example 339]

SMILES	EC50
O=C(NC1CN2CCC1CC2)c1ccc(-n2[nH]c3c(nnc4cccc(F)c43)c2=O)cc1 (stereo not drawn) [Example 401]	< 1 µM

same assay, conditions: cell-free HTRF, compound concentration series 100 μM-1.7 nM, 4 hours at room temperature; read-out: Activity (EC50 in the HTRF assay)

EC50	SMILES
< 1 µM	CN1CCN(CCCNC(=O)c2ccc(-n3[nH]c4c(nnc5ccccc54)c3=O)cc2)CC1 [Example 10]
< 1 µM	O=C(NC1CCN(Cc2ccccc2)C1)c1ccc(-n2[nH]c3c(nnc4ccccc43)c2=O)cc1 (stereo not drawn) [Example 94]
< 1 µM	CCCCOCCCNC(=O)c1ccc(-n2[nH]c3c(nnc4ccccc43)c2=O)cc1 [Example 67]
> 10 µM	CC(NC(=O)c1ccc(-n2[nH]c3c(nnc4ccccc43)c2=O)cc1)c1ccccc1 (stereo not drawn) [Example 19]
1 to 10 µM	CCOC(CNC(=O)c1ccc(-n2[nH]c3c(nnc4ccccc43)c2=O)cc1)OCC [Example 45]
< 1 µM	CCCNCCNC(=O)Nc1ccc(-n2[nH]c3c(nnc4ccccc43)c2=O)cc1 [Example 144]
< 1 µM	CCCCCCCCCCCCOCCCNC(=O)Nc1ccc(-n2[nH]c3c(nnc4ccccc43)c2=O)cc1 [Example 159]
> 10 µM	CC1C(NC(=O)Nc2ccc(-n3[nH]c4c(nnc5ccccc54)c3=O)cc2)CC2CC1C2(C)C (stereo not drawn) [Example 202]
< 1 µM	CC(C)NCCNC(=O)Nc1ccc(-n2[nH]c3c(nnc4ccccc43)c2=O)cc1 [Example 141]
> 10 µM	CC(C)(C)C1CCC(NC(=O)c2ccc(-n3[nH]c4c(nnc5ccccc54)c3=O)cc2)CC1 (stereo not drawn) [Example 38]
< 1 µM	O=C(NCCO)c1ccc(-n2[nH]c3c(nnc4ccccc43)c2=O)cc1 [Example 51]
1 to 10 µM	O=C(Nc1ccc(N2CCCCC2)cc1)c1ccc(-n2[nH]c3c(nnc4ccccc43)c2=O)cc1 [Example 98]
> 10 µM	CCCCCOC(=O)CNC(=O)Nc1ccc(-n2[nH]c3c(nnc4ccccc43)c2=O)cc1 [Example 216]
< 1 µM	CCN(CC)CCCC(C)NC(=O)Nc1ccc(-n2[nH]c3c(nnc4ccccc43)c2=O)cc1 (stereo not drawn) [Example 168]
1 to 10 µM	O=C(Nc1ccccc1)c1ccc(-n2[nH]c3c(nnc4ccccc43)c2=O)cc1 [Example 15]
< 1 µM	CN(C)CC(C)(C)CNC(=O)Nc1ccc(-n2[nH]c3c(nnc4ccccc43)c2=O)cc1 [Example 185]

EC50	SMILES
1 to 10 µM	O=C(NCCc1ccncc1)Nc1ccc(-n2[nH]c3c(nnc4ccccc43)c2=O)cc1 [Example 184]
1 to 10 µM	O=C(NCCc1cnc[nH]1)c1ccc(-n2[nH]c3c(nnc4ccccc43)c2=O)cc1 [Example 35]
> 10 µM	O=C(NCC1CCCCCC1)c1ccc(-n2[nH]c3c(nnc4ccccc43)c2=O)cc1 [Example 87]
1 to 10 µM	CCC(CC)NC(=O)Nc1ccc(-n2[nH]c3c(nnc4ccccc43)c2=O)cc1 [Example 187]
> 10 µM	O=C(NCCN1CCNC1=O)c1ccc(-n2[nH]c3c(nnc4ccccc43)c2=O)cc1 [Example 36]
1 to 10 µM	CC(C)(C)OC(=O)NCCNC(=O)c1ccc(-n2[nH]c3c(nnc4ccccc43)c2=O)cc1 [Example 17]
< 1 µM	O=C(NCCCN1CCOCC1)c1ccc(-n2[nH]c3c(nnc4ccccc43)c2=O)cc1 [Example 13]
1 to 10 µM	COCCCNC(=O)Nc1ccc(-n2[nH]c3c(nnc4ccccc43)c2=O)cc1 [Example 133]
< 1 µM	CC(C)(C)OC(=O)NCCCCNC(=O)c1ccc(-n2[nH]c3c(nnc4ccccc43)c2=O)cc1 [Example 91]
< 1 µM	O=C(NCCNCCO)c1ccc(-n2[nH]c3c(nnc4ccccc43)c2=O)cc1 [Example 109]
1 to 10 µM	CC(C)OCCCNC(=O)Nc1ccc(-n2[nH]c3c(nnc4ccccc43)c2=O)cc1 [Example 149]
1 to 10 µM	O=C(NCCCc1ccccc1)c1ccc(-n2[nH]c3c(nnc4ccccc43)c2=O)cc1 [Example 41]
1 to 10 µM	O=C(NCCc1ccccc1)Nc1ccc(-n2[nH]c3c(nnc4ccccc43)c2=O)cc1 [Example 147]
< 1 µM	CC(C)CC(C)NC(=O)c1ccc(-n2[nH]c3c(nnc4ccccc43)c2=O)cc1 (stereo not drawn) [Example 55]
1 to 10 µM	O=C(NCCCO)c1ccc(-n2[nH]c3c(nnc4ccccc43)c2=O)cc1 [Example 111]

SMILES	EC50
O=C(Nc1ccc(-n2[nH]c3c(nnc4ccccc43)c2=O)cc1)NC1CN2CCC1CC2 (stereo not drawn) [Example 169]	< 1 µM

same assay, conditions: cell-free HTRF, concentration series 100 μM-1.7 nM, 4 hours at room temperature; read-out: Activity (EC50 in the HTRF assay)

EC50	SMILES
< 1 µM	O=C(NC1CCNCC1)c1ccc(-n2[nH]c3c(nnc4c(F)cccc43)c2=O)cc1 [Example 440]
< 1 µM	O=C(NC1CCNC1)c1ccc(-n2[nH]c3c(nnc4c(F)cccc43)c2=O)cc1 (stereo not drawn) [Example 488]
< 1 µM	O=C(NC1CCN(CCC(F)=C(F)F)CC1)c1ccc(-n2[nH]c3c(nnc4c(F)cccc43)c2=O)cc1 [Example 484]
< 1 µM	CC(C)(C)CNCCCCNC(=O)c1ccc(-n2[nH]c3c(nnc4c(F)cccc43)c2=O)cc1 [Example 481]
< 1 µM	O=C(N[C@H]1CC[C@H](O)CC1)c1ccc(-n2[nH]c3c(nnc4c(F)cccc43)c2=O)cc1 [Example 501]
< 1 µM	C=CCN(CC=C)CCCCNC(=O)c1ccc(-n2[nH]c3c(nnc4c(F)cccc43)c2=O)cc1 [Example 459]
< 1 µM	O=C(NCC(F)F)c1ccc(-n2[nH]c3c(nnc4c(F)ccc(F)c43)c2=O)cc1 [Example 500]
< 1 µM	O=C(NC1CCN(CC2CCCCC2)CC1)c1ccc(-n2[nH]c3c(nnc4c(F)cccc43)c2=O)cc1 [Example 456]
< 1 µM	CC(CO)NC(=O)c1ccc(-n2[nH]c3c(nnc4c(F)cccc43)c2=O)cc1 (stereo not drawn) [Example 508]
